Measurements taken from the METLIN SMRT retention time set (Domingo-Almenara et al. 2019).

assay: gradient 5% acetonitrile 3 min, to 50% in 2 min, to 85% in 15 min, held 3 min, 100 µL/min; conditions: column: Zorbax Extend-C18 2.1 x 50 mm; eluents: water / acetonitrile, 0.1% formic acid
Procedure, shortened: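 Each retention time is based on an adduct peak selected computationally and verified by manual inspection. Measurements used HPLC–quadrupole time-of-flight mass spectrometry in positive and negative ionization mode on mixtures of ~100 pure standards. Chromatography ran on a Zorbax Extend-C18 column (2.1 × 50 mm, 1.8 μm) at 100 μL/min with water and acetonitrile, each containing 0.1% formic acid, and dead and dwell volumes of 40 μL and 900 μL.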

RP-LC retention time	SMILES
684 s	O=C(CCC1CCN(c2cc(NC3CC3)ncn2)CC1)NCc1ccc(F)cc1F
774 s	CCOC(=O)c1ccc(NC(=O)C2CCN(S(=O)(=O)c3cn(CC)cn3)CC2)cc1
604 s	Cc1scc2nc(C3CCC3)nc(N3CCC(C(=O)NCc4ccc(N(C)C)cc4)CC3)c12
611 s	Cn1ncc2c3ccccc3n(CC(=O)N3CCC(C(N)=O)CC3)c2c1=O
756 s	CC(C)n1c(N2CCCN(C(=O)c3ccco3)CC2)cc(=O)n(C(C)C)c1=O
849 s	CCOC(=O)Cc1ccc(NC(=O)N2CCCn3nc(-c4cccs4)cc3C2)cc1
610 s	COc1ccc(Nc2c(C(=O)N3CCCC(C)C3)cnc3nc(C)ccc23)cc1OC (stereo not drawn)
573 s	CC(C)N(CC(=O)N1CCNCC1)C(=O)c1cccc(Br)c1
1030 s	CC(=O)N1CCc2sc(S(=O)(=O)N3CCN(c4cccc(C)c4C)CC3)cc2C1
957 s	O=C(NC1CCCCC1)C1CCCN(c2nc3ccsc3c(=O)n2Cc2ccccc2)C1 (stereo not drawn)
660 s	CC1CCN(C(=O)c2csc(-c3ccc(N4CCCC4)nc3)n2)CC1
818 s	CN1c2ccc(Cl)cc2C(=O)NC12CCN(C(=O)NC1CCCCC1)CC2
759 s	O=C([C@@H]1C[C@H](F)CN1S(=O)(=O)c1ccc2c(c1)OCCO2)N1CCCCC1
805 s	CCS(=O)(=O)N1CC(=O)N(c2ccc(F)cc2C)C(C)(C(=O)NC2CCCC2)C1 (stereo not drawn)
932 s	Cc1ccc(S(=O)(=O)N2CCC(C)(C(=O)NCc3ccccc3)CC2)cc1
586 s	Cc1ccc(F)cc1S(=O)(=O)N1CCN(c2nc3ccncc3n(C)c2=O)CC1
563 s	O=C1C2C3C=CC(C3)C2C(=O)N1CCN1CCN(Cc2ccc([N+](=O)[O-])cc2)CC1 (stereo not drawn)

RP-LC retention time	SMILES
868 s	O=C(C1CC1)N1CCc2sc(S(=O)(=O)Nc3cc(Cl)ccc3F)cc2C1
548 s	O=C(c1ccc(N2C(=O)CCS2(=O)=O)cc1)N1CCN(c2ccccn2)CC1
963 s	CC1(C(=O)NCc2ccc(F)cc2)CCCN(S(=O)(=O)c2ccc(F)cc2F)C1 (stereo not drawn)
655 s	O=C(Cc1cccc(Cl)c1)N1CC(n2cnnc2C2CC2)C1
953 s	CCc1cccc(NC(=O)C2CCN(S(=O)(=O)c3ccc4c(c3)sc(=O)n4C(C)C)CC2)c1
1040 s	Cc1nc(-c2cc(S(=O)(=O)N3CCC(C(=O)N4CCc5ccccc54)CC3)c(C)s2)no1
940 s	CC1CCCN(S(=O)(=O)c2ccc(-c3nnc(C4CC4)o3)o2)C1 (stereo not drawn)
506 s	CN1CCCC1c1nc(C2CN(C(=O)c3ccn[nH]3)C2)no1 (stereo not drawn)
826 s	COCCCNC(=O)C1CCN(C(=O)c2cc3oc(C)cc3n2Cc2c(F)cccc2Cl)CC1
572 s	O=C1N(CN2CCN(c3ccccn3)CC2)c2ccccc2C12OCCCO2
630 s	O=C(NCc1ccc(Br)cc1)c1ccc(=O)n(CCN2CCCC2)c1
589 s	Cc1ccc(-n2nc3c(N4CCCC(C(=O)NCCN5CCOCC5)C4)nnc(C)c3c2C)cc1 (stereo not drawn)
1140 s	CCC(c1cccs1)N1C(=O)[C@H]2CN(S(=O)(=O)c3ccc(C(C)C)cc3)C[C@H]2C1=O (stereo partly drawn)
602 s	Cc1nc2cccnc2n1C1CCN(C(=O)c2cccc(Cl)c2)C1 (stereo not drawn)
626 s	O=C(c1ccc(Br)cc1)N1CCN(C(=O)c2cc(-c3cccnc3)n[nH]2)CC1
749 s	COc1cc([C@@H]2c3cc4c(cc3[C@H](O)[C@@H](CO)[C@@H]2C(=O)N2CCN(c3ccccc3)CC2)OCO4)cc(OC)c1OC

The remaining lines, values behind:

SMILES	RP-LC retention time
COc1cc(-c2noc(C3CC(=O)N(c4ccc(C(C)C)cc4)C3)n2)cc(OC)c1OC (stereo not drawn)	605 s
COC(=O)C(C)Sc1nc2c(c(=O)n1-c1ccc(OC(F)(F)F)cc1)SCC2 (stereo not drawn)	949 s
CCOc1ccc(-c2ccc(=O)n(Cc3nc(-c4cccc(C)c4)no3)n2)cc1	1120 s
Cc1[nH]nc(-c2c(C)sc(C)c2S(=O)(=O)N2CCc3ccccc3C2)c1C	975 s
O=C(c1nccc2ccccc12)N1CCc2cc(-c3ccno3)ccc21	1000 s
O=C(Nc1ccccc1)N1CCC(CCNC(=O)C2(c3ccccc3)CC2)CC1	882 s
CN1C(=O)c2ccccc2Oc2ccc(C(=O)NCc3ccc(F)cc3)cc21	868 s
CCC(NC(=O)c1cn2ccc(C)cc2n1)c1ccc(OC)cc1 (stereo not drawn)	707 s
O=S(=O)(c1ccccc1)N1CCc2nc(-c3ccccc3)ncc2C1	1010 s
Clc1ccccc1OCc1nn2c(CSc3ccccc3)nnc2s1	1020 s
COc1ccc(CCNC(=O)NCCS(=O)(=O)c2c(C)n(C)c3ccccc23)cc1	740 s
Cc1cc(C)c2c(N3CCSCC3)nc(C(=O)NC(C)c3ccccn3)nc2n1 (stereo not drawn)	618 s
O=C(c1ccc(Br)o1)N1CCN(c2ccc(NCc3ccccc3)nn2)CC1	668 s
COC(=O)c1ccccc1NC(=O)N1CCC(C(=O)NCc2csc(-c3ccccc3)n2)CC1	902 s
Cc1ccc(CNC(=O)C2(C)CN(S(C)(=O)=O)CC(=O)N2c2cccc(C)c2C)cc1 (stereo not drawn)	856 s
CCNC(=O)C1CCN(c2nc3ccc(-c4ccsc4)nc3s2)CC1	799 s
O=C(c1cc(=O)c2ccccc2o1)N1CC2CC(C1)c1cccc(=O)n1C2 (stereo not drawn)	598 s
COC(=O)[C@H](CCSC)NC(=O)c1ccc(-n2cnnn2)cc1	693 s
Cn1cccc1-c1cc2n(n1)CCCN2C(=O)CCC(=O)NCc1ccc(F)cc1	717 s
Cc1cccc(N2C(=O)CN(Cc3ccco3)[C@H]3CS(=O)(=O)C[C@H]32)c1	744 s
COc1ccc(Cl)cc1NC(=O)c1cccn1-c1cccnc1	887 s
Cc1cccc(-c2nc3ccccn3c2NC(=O)Nc2ccccc2)c1	665 s
CC(C)C(=O)NCc1cnn(-c2ccc(C(=O)N(C)Cc3ccco3)cc2)c1	696 s
COc1ccc(-c2noc(-c3ncn4c3COC(c3ccc(F)cc3)C4)n2)cc1OC (stereo not drawn)	958 s
CCCN(CC1CCOC1)C(=O)Nc1cccc(Br)c1 (stereo not drawn)	876 s
CCCC(NC(=O)c1sccc1C)C(=O)Nc1nc2ccccc2[nH]1 (stereo not drawn)	686 s
CCCNC(=O)c1nc2cccnc2n(C)c1=O	647 s
COc1ccc(OCc2nc(Cc3nc(-c4cccc(C)c4)oc3C)no2)cc1	1160 s

SMILES	RP-LC retention time
CCCCN(C)Cc1nc2nc(C)cc(N3CCOCC3)n2n1	582 s
COc1ccc2nc(C(=O)NCc3ccccc3C)cn2n1	843 s
CCCn1cc(C(=O)NC2CCN(Cc3ccccc3)CC2)c2cccnc21	624 s
Cn1c(=O)oc2cc(-c3noc(-c4cccc(F)c4)n3)ccc21	1020 s
COc1ccc(NC(=O)COc2ccc(-c3nnc4n3CCCC4)cc2)c(OC)c1	684 s
O=C(Nc1nc(C(=O)N2CCN(c3ncccn3)CC2)co1)c1ccccc1	632 s
CCOc1cccc(-c2noc(Cc3nnc(-c4ccccc4)o3)n2)c1	1060 s
COC(=O)c1cc2c(=O)n(Cc3ccc(OC)c(OC)c3)ccc2nc1C	760 s
CCc1cc(N2CCN(C(=O)c3ccc(C#N)cc3)CC2)nc2nncn12	581 s
CCC(C)n1c(=O)c2ccccc2n(Cc2nc(-c3ccc(C(F)(F)F)cc3)no2)c1=O (stereo not drawn)	1290 s
O=C(Nc1nccs1)c1ccccc1OCc1nc(-c2ccccc2)no1	953 s
COCC(=O)NC1CCN(c2ccccc2)C1=O (stereo not drawn)	617 s
Fc1cccc(-c2nn3c(CSc4ccccc4)nnc3s2)c1	969 s
Cc1noc(-c2cc(=O)n(CC(=O)Nc3ccccc3)c3ccccc23)n1	840 s
CNc1nnc(-c2nnc(C)o2)c2ccccc12	567 s
COC(=O)c1ccc(NC(=O)C2c3cc(F)ccc3CCN2C(=O)OC)cc1 (stereo not drawn)	850 s
Cc1c(-c2ccccc2)n(O)[n+]([O-])c1-c1ccccc1	1020 s
COc1ccc(NC(=O)Cn2c(=O)n(-c3ccccc3)c3ncccc32)cc1OC	729 s
CC(C)(C)c1ccc(OCC(=O)N(Cc2ccc(Br)o2)C2CCS(=O)(=O)C2)cc1 (stereo not drawn)	1060 s
Cc1cccc(Sc2nccnc2N2CCCC(C(=O)NC(C)c3ccccc3)C2)c1 (stereo not drawn)	1150 s
COc1ccc(CNC(=O)C2CCCN(c3nc4ccccc4n(Cc4ccccc4)c3=O)C2)cc1 (stereo not drawn)	1090 s
COc1ccccc1N1CCN(c2cc(SCC(=O)Nc3cccc(C)c3C)ncn2)CC1	1030 s
COc1ccc(C(=O)N2CCN(c3nc(-c4ccccc4)no3)CC2)cc1OC	849 s
CCOC(=O)c1[nH]c(C)c(CCC(=O)N2CCC(C(=O)NCc3ccc(C)cc3)CC2)c1C	826 s
CCOC(=O)c1csc(NC(=O)CC[C@H]2NC(=O)c3ccccc3NC2=O)n1	648 s
CN1C[C@@H]2C(=O)N(CCc3ccccc3)C(=O)[C@@H]2C1	605 s
CC(Oc1ccc(-c2cnc3ccccc3n2)cc1)C(=O)NCCN(C)C (stereo not drawn)	634 s
